Assays:
[1] = Comparison test on atomization (smoking machine, Cambridge filter, conversion rate k); format: physicochemical; settings: concentrations 1-15%
[2] = system: smokers; experiment: Comparison test on puff experience (scores by multiple smokers); format: in vivo; settings: same content (3%)
Description: An arecoline salt and an arecoline hydrobromide of the same content (3%) are selected for puff experience tests, and scores are given from 0 to 5 in terms of pleasure, increased heart rate, ruddy face, body fever, slight sweating and so on by evaluation of multiple smokers.

[3] = Physicochemical analysis: appearance on standing at room temperature; settings: salt prepared at molar ratio of arecoline to benzoic acid of 1; viscous yellow oily substance
[4] = Surface temperature of heating element while heating the heat-not-burn cigarette (infrared thermal imager)

SMILES: COC(=O)C1=CCCN(C)C1.O=C(O)c1ccccc1 [arecoline salt, benzoate of arecoline]
- Conversion rate compared with arecoline hydrobromide [1]: obviously higher than that of the arecoline hydrobromide
- Puff experience compared with arecoline hydrobromide (pleasure, increased heart rate, ruddy face, body fever, slight sweating) [2]: obviously superior to the arecoline hydrobromide
- Change of appearance when placed at room temperature [3]: darkens slowly when placed at room temperature
- Temperature at which the arecoline salt in the cigarette can be atomized ([4]; in heat-not-burn cigarette, generates a smokable aerosol): 150-250 °C
- Puff duration (temperature) 1 s ([4]; surface temperature of heating element, resistance heating, heat-not-burn cigarette containing arecoline salt, puff duration 1 s): 153.1 °C
- Puff duration (temperature) 2 s ([4]; surface temperature of heating element, resistance heating, heat-not-burn cigarette containing arecoline salt, puff duration 2 s): 228.3 °C
- Puff duration (temperature) 3 s ([4]; surface temperature of heating element, resistance heating, heat-not-burn cigarette containing arecoline salt, puff duration 3 s): 241.1 °C
